Structures are written as SMILES.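 Five compound concentrations were applied to cells in 96-well plates for 48 hours; endpoints were derived by simple linear interpolation of the resulting dose-response curve. GI50: concentration for 50% inhibition of growth. TGI marks complete inhibition of growth.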

Test systems include SN12C renal; OVCAR-3 ovarian; A549 NSCLC; LOX IMVI melanoma; SW-620 colon; RXF 393 renal; SK-MEL-5 melanoma; A498 renal; SR leukemia; OVCAR-8 ovarian.
Common to all, as to test: NCI tumour cell line growth inhibition, 48 h

Turning to `COc1cc([C@H](C)c2ccc3ccccc3c2)cc(OC)c1OC`, the GI50 with SN12C renal is 1.08 µM; in the assay on OVCAR-3 ovarian, 0.272 µM; in the assay with A549 NSCLC it was 0.595 µM; in the assay on LOX IMVI melanoma, 1.03 µM; in the assay with SW-620 colon it was 0.0974 µM; with RXF 393 renal, 0.22 µM. The GI50 in the assay with SK-MEL-5 melanoma was 0.26 µM; in the assay with A498 renal, 0.255 µM; with SR leukemia, 0.0528 µM; with OVCAR-8 ovarian, 0.499 µM. Further, the TGI in the assay with SN12C renal, in the assay with OVCAR-3 ovarian, in the assay with A549 NSCLC, in the assay with LOX IMVI melanoma, in the assay on SW-620 colon and with RXF 393 renal was over 100 µM in each case. The TGI was 11.1 µM in the assay on SK-MEL-5 melanoma, 7.34 µM with A498 renal, over 100 µM in the assay with SR leukemia and 65.1 µM with OVCAR-8 ovarian.

Take `CN1CCN(CCSC2Cc3cc(Cl)ccc3Sc3ccccc32)CC1` (centres undefined): the TGI in the assay on SN12C renal was 23.7 µM; in the assay on OVCAR-3 ovarian it was 16.5 µM; in the assay with A549 NSCLC, 13.2 µM; in the assay on LOX IMVI melanoma, 14.1 µM; in the assay on SW-620 colon, 7.21 µM; in the assay on RXF 393 renal, 15.3 µM. In addition, the TGI with SK-MEL-5 melanoma amounted to 7.88 µM; in the assay on A498 renal, 24.7 µM; in the assay on SR leukemia, 19.9 µM; with OVCAR-8 ovarian, 19.4 µM.

For `COC(=O)CCC/C=C\C[C@H]1C=CC(=O)/C1=C/C[C@@H](O)CCc1cccc(C(F)(F)F)c1`, the GI50 is 4.2 µM in the assay on SN12C renal; 1.97 µM with OVCAR-3 ovarian; 3.55 µM in the assay on A549 NSCLC; 0.955 µM with LOX IMVI melanoma; 3.28 µM with SW-620 colon; 2.08 µM in the assay on RXF 393 renal. The GI50 in the assay on SK-MEL-5 melanoma was 1.73 µM; in the assay with A498 renal, 5.93 µM; with SR leukemia, 0.975 µM; with OVCAR-8 ovarian, 3.31 µM. Besides, the TGI came out at 16.9 µM in the assay with SN12C renal; 4.08 µM in the assay on OVCAR-3 ovarian; 12.2 µM in the assay with A549 NSCLC; 2.24 µM with LOX IMVI melanoma; 10.6 µM with SW-620 colon; 3.79 µM in the assay on RXF 393 renal. The TGI is 3.2 µM with SK-MEL-5 melanoma, 18.2 µM in the assay on A498 renal, 5.53 µM in the assay on SR leukemia and 11.8 µM with OVCAR-8 ovarian.

In the case of `Cc1cc(S(=O)(=O)Nc2nc(N)nc(N3N=CCC3C)n2)c(S)cc1Cl` (centres undefined), the TGI with SN12C renal, in the assay on OVCAR-3 ovarian, with A549 NSCLC, with LOX IMVI melanoma, with SW-620 colon and with RXF 393 renal was over 10 µM each time. Moreover, the TGI in the assay with SK-MEL-5 melanoma, in the assay with A498 renal, in the assay on SR leukemia and in the assay with OVCAR-8 ovarian was over 10 µM in each case.

As to `Clc1nc(Oc2ccccc2)nc(-c2cn(-c3ccccc3)c3ccccc23)n1`, the GI50 with SN12C renal is 6.18 µM; with OVCAR-3 ovarian, 3.37 µM; in the assay on A549 NSCLC, 27.4 µM; in the assay with LOX IMVI melanoma, 2.44 µM; in the assay with SW-620 colon it was 2.92 µM; in the assay on RXF 393 renal, 3.8 µM. The GI50 with SK-MEL-5 melanoma is 14.3 µM; in the assay on A498 renal, over 47.6 µM; in the assay with SR leukemia, 0.241 µM; in the assay with OVCAR-8 ovarian it was 3.25 µM. The TGI in the assay on SN12C renal is 20.1 µM; in the assay on OVCAR-3 ovarian it was 10.2 µM; in the assay on A549 NSCLC it was over 67.4 µM; in the assay with LOX IMVI melanoma, 5.93 µM; in the assay with SW-620 colon it was 9.24 µM; in the assay on RXF 393 renal, 10.7 µM. The TGI in the assay on SK-MEL-5 melanoma was 30.5 µM; in the assay with A498 renal, over 100 µM; in the assay on SR leukemia, 0.849 µM; with OVCAR-8 ovarian, 11 µM.

Take `COc1cc2c(cc1OCc1ccccc1)N=C[C@@H]1C/C(=C/C(=O)NCCCN3C(=O)c4cccc5cccc(c45)C3=O)CN1C2=O`: the GI50 is 0.346 µM in the assay on SN12C renal; 0.273 µM in the assay on OVCAR-3 ovarian; 3.05 µM in the assay with A549 NSCLC; 0.277 µM in the assay on LOX IMVI melanoma; 0.284 µM with SW-620 colon; 0.231 µM in the assay with RXF 393 renal. The GI50 was 1.04 µM with SK-MEL-5 melanoma, 1.45 µM with A498 renal, over 100 µM in the assay with SR leukemia and 1.22 µM in the assay on OVCAR-8 ovarian. Moreover, the TGI was 2.4 µM in the assay on SN12C renal; 3.72 µM in the assay on OVCAR-3 ovarian; over 100 µM in the assay on A549 NSCLC; over 35.8 µM in the assay with LOX IMVI melanoma; 15.5 µM in the assay on SW-620 colon; 0.651 µM in the assay on RXF 393 renal. Moreover, the values for the TGI with SK-MEL-5 melanoma, with A498 renal and with SR leukemia were 3.33 µM, 4.07 µM and over 100 µM, respectively.

On to `CC(=O)O/N=C/c1ncccc1CO`, for which the TGI in the assay with SN12C renal, in the assay with OVCAR-3 ovarian, in the assay on A549 NSCLC, with LOX IMVI melanoma, in the assay with SW-620 colon and in the assay with RXF 393 renal was over 100 µM each time. Besides, the TGI in the assay on SK-MEL-5 melanoma, with A498 renal, in the assay with SR leukemia and with OVCAR-8 ovarian was over 100 µM each time.

For the compound `COc1cc(OC2OC(C)C(O)C(O)C2O)cc2oc(-c3ccc(O)cc3)c(CC=C(C)C)c(=O)c12` (centres undefined), the GI50 was 12.3 µM in the assay on SN12C renal; 17.1 µM with OVCAR-3 ovarian; 22.8 µM with A549 NSCLC; 10.4 µM in the assay with LOX IMVI melanoma; 19.7 µM in the assay on SW-620 colon; 20.3 µM with RXF 393 renal. For the same compound, the GI50 in the assay on SK-MEL-5 melanoma is 13.6 µM; with A498 renal, 29.8 µM; in the assay with SR leukemia it was 4.08 µM; with OVCAR-8 ovarian it was 32.3 µM. The TGI in the assay on SN12C renal is 45.3 µM; with OVCAR-3 ovarian, 66.3 µM; in the assay with A549 NSCLC, 68.5 µM; in the assay with LOX IMVI melanoma, 23 µM; with SW-620 colon, 44 µM; in the assay on RXF 393 renal it was 64.6 µM. Moreover, the TGI in the assay on SK-MEL-5 melanoma was 30.9 µM; in the assay on A498 renal, 84.2 µM; with SR leukemia, 22.5 µM; in the assay on OVCAR-8 ovarian, over 100 µM.

The record behind these values is PubChem BioAssay (NCI).
